Reference: patent publication US4898975A, “Water soluble organic ammonium per halides” (Great Lakes Chemical Corporation, priority 1989, dated 1990)
Read-outs that look alike come from different tables or passages of the source. Each block holds one compound with its values, some of them ahead of it.

Columns and labels:
[1] = Titration of oxidizable bromine (Standard Methods, Method 408A); assay type: physicochemical; conditions: for Ox. Br2: of the sample used for vapor pressure (Table 9)
[2] = Vapor pressure of aqueous organic ammonium perbromides (isoteniscope); assay type: physicochemical; conditions: for Vp: 26° C. (Table 9)
Description: The vapor pressures of the aqueous organic ammonium perbromides were measured using an isoteniscope as described by Farrington, et al. [Farrington, D.; Alberti, R.; William, S.; Corwell, C.; Bender, P; and Harriman, S. Experimental Physical Chemistry, Experiment 17, pp. 164-165, 7th Edition, McGraw Hill Publishing Co., New York, 1976].

[3] = assay type: physicochemical; conditions: closed bottle
Description: In order to determine the shelf life stability of the perbromide solutions, a series of studies were conducted to determine the percent bromine lost over time. The following tables shown below list the perbromides studied and the percent oxidizable bromine lost over time. The perbromides studied were kept in closed bottles in ambient conditions (Table 7) and at 50° C.

[4] = physchem; conditions: water
[5] = Water solubility of perbromides
[6] = higher aqueous ethanolammonium perbromides (Table 6)
[7] = concentrated and anhydrous perbromides (Table 4)
[8] = partially soluble perbromides, separated liquid phase (Table 2)
[9] = 50° C., time elapsed 40 (months)
[10] = 50° C., time elapsed 40 (months), 1.752e+06 min
[11] = completely soluble perbromides, aqueous solution (Table 1)

Compound: NCCO [Compound 26]
- Tit. Ox. Br2 [1, 6]: 52.6 % by Weight

Compound: NCCO [Compound 27]
- Tit. Ox. Br2 [1, 6]: 57.7 % by Weight
- Ox. Br2 [1]: 57.7 % by Weight
- Vp [2]: 116 mmHg

Compound: CCCN [Compound 19, Propylammonium Perbromide]
- Tit. Ox. Br2 [1, 7]: 53.2 % by Weight

Compound: CCCCN(CCCC)CCCC [Compound 12, Tributylammonium Perbromide, reference compound]
- Ox. Br2 [1]: 37.5 % by Weight
- Tit. Ox. Br2 [1, 8]: 36.0 % by Weight
- Vp [2]: 28 mmHg

Compound: OCCNCCO [Compound 4, Diethanolammonium Perbromide]
- Initial Ox. Br2 ([3]; 50° C.): 37.0 % by Weight
- Change in % Br2 [3, 9]: 7.0%
- Final Ox. Br2 [3, 9]: 30.0 % by Weight
- Relative Change in % Br2 [3, 10]: 18.9%
- Vp [2]: 49 mmHg

Compound: NCCO [Compound 18, Ethanolammonium Perbromide]
- Tit. Ox. Br2 [1, 7]: 51.8 % by Weight

- Tit. Ox. Br2 [1, 11]: 34.7 % by Weight
Compound: CCCCCCCCN [Compound 9, Octylammonium Perbromide]

- Tit. Ox. Br2 [1, 8]: 45.1 % by Weight
- solubility [4]: 100 mg/mL
Compound: CCCNCCC [Compound 10, Dipropylammonium Perbromide]

Compound: CCCN [Compound 3, Propylammonium Perbromide]
- Tit. Ox. Br2 [1, 11]: 39.3 % by Weight
- Vp [2]: 36 mmHg

Compound: NCCCCCCN [Compound 16, 1,6-Hexanediammonium]
- Tit. Ox. Br2 ([1]; perbromides precipitated out of aqueous solution (Table 3)): 51.8 % by Weight
- solubility [4]: 500 mg/mL

Compound: NCCO [Compound 1, Ethanolammonium Perbromide]
- Initial Ox. Br2 ([3]; 50° C.): 40.8 % by Weight
- Change in % Br2 [3, 9]: 1.8%
- Final Ox. Br2 [3, 9]: 39.0 % by Weight
- Relative Change in % Br2 [3, 10]: 4.4%
- Change in % Br2 ([3]; ambient temperature, 24 months): 1.6%
- Final Ox. Br2 ([3]; ambient temperature, 24 months): 38.5 % by Weight
- Relative Change in % Br2 ([3]; ambient temperature, 24 months, 1.0512e+06 min): 4.0%
- Initial Ox. Br2 ([3]; ambient temperature): 40.1 % by Weight

Compound: CCCCCCN [Compound 8, Hexylammonium Perbromide]
- Tit. Ox. Br2 [1, 11]: 36.1 % by Weight

- Relative Change in % Br2 ([3]; 29200 h): 3.1%
- Relative Change in % Br2 ([3]; ambient, 17520 h): 2.0%
Compound: Ethanolammonium Perbromide [Compound 21]

- Ox. Br2 [1]: 43.3 % by Weight
- Tit. Ox. Br2 [1, 8]: 40.9 % by Weight
- Change in % Br2 ([3]; ambient temperature, 16 months): 2.1%
- Final Ox. Br2 ([3]; ambient temperature, 16 months): 41.1 % by Weight
- Relative Change in % Br2 ([3]; ambient temperature, 16 months, 700800 min): 4.9%
- Initial Ox. Br2 ([3]; ambient temperature): 43.2 % by Weight
- Vp [2]: 38 mmHg
- solubility [5]: 10 mg/mL
Compound: CCCCNCCCC [Compound 11, Dibutylammonium Perbromide]

Compound: BrBr [Compound 35, Bromine, reference compound]
- Ox. Br2 [1]: 100 % by Weight
- vapor pressure ([2]; 26° C.): approximately 220 mm Hg
- Vp [2]: 223 mmHg

- Ox. Br2 [1]: 37.9 % by Weight
- vapor pressure [2]: 140 mm Hg
- Vp [2]: 145 mmHg
Compound: NaBr3 [Compound 33, reference compound]

- Relative Change in % Br2 ([3]; 29200 h): 2.7%
- Relative Change in % Br2 ([3]; ambient, 17520 h): 2.3%
Compound: Propylammonium Perbromide [Compound 22]

- Tit. Ox. Br2 [1, 11]: 37.7 % by Weight
Compound: CCNCCO [Compound 6, Ethylethanolammonium Perbromide]

Compound: OCCNCCO [Compound 20, Diethanolammonium Perbromide]
- Tit. Ox. Br2 [1, 7]: 45.3 % by Weight

Compound: CCN(CC)CCO [Compound 14, Diethylethanolammonium]
- Tit. Ox. Br2 [1, 8]: 42.3 % by Weight
- Solubility in water (in words) [5]: only sparingly soluble in water
- solubility [5]: 1 mg/mL

Compound: NCCO [Compound 29]
- Tit. Ox. Br2 [1, 6]: 72.6 % by Weight

Compound: CN(C)CCO [Compound 7, Dimethylethanolammonium Perbromide, reference compound]
- Vp [2]: 30 mmHg

Compound: NCCO [Compound 28]
- Tit. Ox. Br2 [1, 6]: 63.9 % by Weight

- Tit. Ox. Br2 [1, 11]: 39.3 % by Weight
- Ox. Br2 [1]: 39.3 % by Weight
- Vp [2]: 28 mmHg
Compound: CNCCO [Compound 5, Methylethanolammonium Perbromide]
